In patent publication US9675663B2, “TUSC2 therapies” (Board of Regents, The University of Texas System, priority 2011, dated 2017):
“And” between values parts separate entries of the source, which are not always exact repeats. Equal entries are not always repeated.

Experiments:
HCC366 and H322 cells = test: Effect of AMPK inhibitor on FUS1/MK2206-induced cell death; assay type: cell-based, human; conditions: AMPK inhibitor present
Description: FIG. 23: The effect of AMPK inhibitor on FUS1/MK2206-induced cell death. Cell survival was assessed in HCC366 and H322 cells treated with FUS1 nanoparticles and various concentrations of MK2206 in the presence or absence of AMPK inhibitor Compound C. Graphs show relative cell survival (y-axis) at various concentrations of MK2206 (x-axis) with and without AMPK inhibitor as indicated.
(§1) To better determine the mechanism for synergistic FUS1/MK2206 effect, treated cells were subjected to an immunoblots to assess the phosphorylation status of cell signaling molecules. […] Thus, FUS1-increased sensitivity to MK2206 is associated with the down-regulation of AKT and mTOR phosphorylation and up-regulation of AMPK phosphorylation. In view of these studies a proposed FUS/MK2206 signaling pathway is provided as FIG. 25.

H1299 cells = test: Colony formation assay; assay type: cell-based, human; parameters: Colony formation, groups 1-3 (replicates) / Colony formation, average: unit not given here; conditions: for Colony formation normalized on EV: EV + PBS = 100%; for Colony formation, average / Colony formation, groups 1-3 (replicates): number after + = μg Erlotinib; for Colony formation normalized on pc301: pc301PBS = 100%
Description: FIG. 6: Fus1 and Erlotinib combined treatment effect on colony formation of H1299 cells. […] “EV” indicates empty vector; Fus1 indicates a vector containing Fus1; numerical values following “erlo” indicate μg of Erlotinib; PBS indicates Phosphate-Buffer Saline control. […]
(§2) To assess cooperative effects of tumor growth data between FUS-1 (FUST) and Erlotinib (Erlo) a Bayesian Bootstrapping analysis approach was used. The Pr(min(μF, μE)<μC|(data) was calculated i.e., the posterior probability that the minimum of the two posterior mean colony formation for FUS-1 alone, μF, or Erlotinib alone, μE, […] the mean posterior colony formation for the combination μC. This probability calculates the likelihood that average colony formation in the combination arm will be less than the minimum of the two single agent arms. Cooperative effects are shown if this posterior probability is large. Thus, the probability of cooperative effect ranges from 0.0 to 1.0 where 0 means no chance of a true cooperative effect given the data observed while 1 means 100% certainty of a cooperative effect given the data observed. The Statistical software S-PLUS 8.0 were used for all the analyses.

H322 cells = test: Colony formation assay; assay type: cell-based, human; parameters: Colony formation, groups 1-3 (replicates) / Colony formation, average: unit not given here; conditions: for Colony formation normalized on EV: EV + PBS = 100%; for Colony formation, average / Colony formation, groups 1-3 (replicates): number after + = μg Erlotinib; for Colony formation normalized on pc301: pc301PBS = 100%
Description: FIG. 7: Fus1 and Erlotinib combined treatment effect on colony formation of H322 cells. […] “EV” indicates empty vector; Fus1 indicates a vector containing Fus1; numerical values following “+” indicate μg of Erlotinib; PBS indicates Phosphate-Buffer Saline control. […]
as §2

A549 cells = test: Colony formation assay; assay type: cell-based, human; conditions: for Colony formation normalized on EV: EV + PBS = 100%; for Colony formation, average / Colony formation, groups 1-3 (replicates): number after + = μg Erlotinib; for Colony formation normalized on pc301: pc301PBS = 100%
Description: FIG. 8: Fus1 and Erlotinib combined treatment effect on colony formation of A549 cells. […] “EV” indicates empty vector; Fus1 indicates a vector containing Fus1; numerical values following “+” indicate μg of Erlotinib; PBS indicates Phosphate-Buffer Saline control.
as §2

H460 cells = test: Colony formation assay; assay type: cell-based, human; conditions: for Colony formation normalized on EV: EV + PBS = 100%; for Colony formation, average / Colony formation, groups 1-3 (replicates): number after + = μg Erlotinib
Description: FIG. 9: Fus1 and Erlotinib combined treatment effect on colony formation of H460 cells. […] “EV” indicates empty vector; Fus1 indicates a vector containing Fus1; numerical values following “+” indicate μg of Erlotinib; PBS indicates Phosphate-Buffer Saline control.
as §2

A549 = test: IC50 of MK2206 alone or with FUS1-nanoparticles; assay type: cell-based; conditions: Homo sapiens
Description: (§3) FIG. 17: Single drug treatment of MK2206 on lung cancer cells. […] Cell lines that were further analyzed are indicated by arrows.
(§4) FIG. 18: FUS1/MK2206-induced cell death in lung cancer cell lines. Graphs show the relative survival rates for the indicated cancer cells (y-axis) when contacted with empty vector (EV) or FUS1 nanoparticles in the presence of increasing concentrations of MK2206 (x-axis).
(§5) Single drug treatment with AKT inhibitor MK2206 was also assessed in a wide range of lung cancer cell lines. Cell lines indicated by arrows (H322, A549, H2887 and […]) were subjected to further analysis. First, each of the cell lines was treated with FUS1 nanoparticles or empty vector at increasing concentrations of MK2206. […] The effect of the combined therapy was especially evident in H2887, H322 and HCC366 cells. Next, the ability of combined FUS1/MK2206 treatment to inhibit colony formation was studied in the cell lines. […] Thus, FUS1 treatment is able to sensitize cancer cells to the effects of kinase inhibitors such as the AKT inhibitor MK2206. This effect was quantified relative to each studied cell line below in Table 13.

H2887 = test: IC50 of MK2206 alone or with FUS1-nanoparticles; assay type: cell-based; conditions: Homo sapiens, NCI-H2887
Description: as §3, §4, §5

H322 = test: IC50 of MK2206 alone or with FUS1-nanoparticles; assay type: cell-based; conditions: Homo sapiens, NCI-H322
Description: as §3, §4, §5

HCC366 = test: IC50 of MK2206 alone or with FUS1-nanoparticles; assay type: cell-based; conditions: Homo sapiens
Description: as §3, §4, §5

[1] = test system: phosphorylated AMPK, AKT, mTOR and S6K; test: Immunoblot of phosphorylated signaling proteins in FUS1/MK2206-treated cell lines; assay type: cell-based, human; conditions: addition of MK2206; HCC366 or H322 cells
Description: FIG. 21: Immunoblot of p-AKT, p-AMPK and p-mTOR in FUS1/MK2206-treated cell lines. Phosphorylation specific antibodies were used to assess expression of phosphorylated AMPK, AKT, mTOR and S6K in HCC366 or H322 cells. Cells were treated with empty vector (EV); FUS1 nanoparticles (FUS1); MK2206; empty vector+MK2206 (EV+MK); or FUS1 nanoparticles+MK2206 (FUS1+MK) prior to assessment for phosphorylated protein expression. Immunoblot of β-actin was used as a loading control.
as §1

## c1cc(-c2cnn3cc(-c4ccc(OCCN5CCCCC5)cc4)cnc23)ccn1 [Compound C]
HCC366 and H322 cells
  protection from FUS1/MK2206-mediated killing: partially protect cancer cells from FUS1/MK2206-mediated killing

## C#Cc1cccc(Nc2ncnc3cc(OCCOC)c(OCCOC)cc23)c1 [Erlotinib]
H1299 cells; listed as EV + 1
  Colony formation normalized on EV: 97%
  Colony formation, average: 16866
  Colony formation, groups 1-3 (replicates): 18287.0 and 15301.0 and 17010.0
  Colony formation normalized on pc301: 40%
H1299 cells; listed as EV + 2.3
  Colony formation normalized on EV: 47%
  Colony formation, average: 8142
  Colony formation, groups 1-3 (replicates): 9216.0 and 8082.0 and 7128.0
  Colony formation normalized on pc301: 19%
H1299 cells; listed as pc301 + 1
  Colony formation, average: 29960
  Colony formation, groups 1-3 (replicates): 31957.0 and 25107.0 and 32817.0
  Colony formation normalized on pc301: 71%
H1299 cells; listed as pc301 + 2.3
  Colony formation, average: 21288
  Colony formation, groups 1-3 (replicates): 24425.0 and 18192.0 and 21246.0
  Colony formation normalized on pc301: 50%
H322 cells; listed as EV + 1
  Colony formation normalized on EV: 78%
  Colony formation, average: 38570
  Colony formation, groups 1-3 (replicates): 43621 and 36971 and 35119
  Colony formation normalized on pc301: 65%
H322 cells; listed as EV + 2.3
  Colony formation normalized on EV: 37%
  Colony formation, average: 18091
  Colony formation, groups 1-3 (replicates): 20293 and 16469 and 17511
  Colony formation normalized on pc301: 30%
H322 cells; listed as pc301 + 1
  Colony formation, average: 39180
  Colony formation, groups 1-3 (replicates): 44761 and 37701 and 35079
  Colony formation normalized on pc301: 66%
H322 cells; listed as pc301 + 2.3
  Colony formation, average: 28211
  Colony formation, groups 1-3 (replicates): 28610 and 28943 and 27080
  Colony formation normalized on pc301: 47%
A549 cells; listed as EV + 1
  Colony formation normalized on EV: 93%
  Colony formation, average: 2652
  Colony formation, groups 1-3 (replicates): 3083 and 2538 and 2334
  Colony formation normalized on pc301: 47%
A549 cells; listed as EV + 2.3
  Colony formation normalized on EV: 71%
  Colony formation, average: 2044
  Colony formation, groups 1-3 (replicates): 2484 and 1910 and 1738
  Colony formation normalized on pc301: 36%
A549 cells; listed as pc301 + 1
  Colony formation, average: 3203
  Colony formation, groups 1-3 (replicates): 3779 and 2436 and 3393
  Colony formation normalized on pc301: 57%
A549 cells; listed as pc301 + 2.3
  Colony formation, average: 1693
  Colony formation, groups 1-3 (replicates): 1625 and 1803 and 1651
  Colony formation normalized on pc301: 30%
H460 cells; listed as EV + 1
  Colony formation normalized on EV: 64%
  Colony formation, average: 1360
  Colony formation, groups 1-3 (replicates): 1216 and 1393 and 1470
H460 cells; listed as EV + 2.3
  Colony formation normalized on EV: 40%
  Colony formation, average: 859
  Colony formation, groups 1-3 (replicates): 750 and 968 and 858

## NC1(c2ccc(-c3nc4ccn5c(=O)[nH]nc5c4cc3-c3ccccc3)cc2)CCC1 [MK2206]
A549
  IC50: 2.86 µM
H2887
  IC50: 16.5 µM
H322
  IC50: 20.4 µM
HCC366
  IC50: 18.4 µM
[1]
  phosphorylated AKT levels: significantly reduced phosphorylated AKT levels
